Measurements taken from ChEMBL document CHEMBL3988442, “University of Dundee, Small-Polar-MMV Screening Library” (2021).

Legend:
[1] = microbe, parasite or virus in culture; settings: Mycobacterium tuberculosis, 96 h, read-out: pIC50 (converted)
[2] = microbe, parasite or virus in culture; settings: Mycobacterium tuberculosis, 72 h, read-out: pIC50 (converted)

| Structure (SMILES) | IC50 [1] | IC50 [2] |
| --- | --- | --- |
| CN(Cc1ccc(Cl)s1)C(=O)Cn1nc(-c2ccc(F)cc2)oc1=O | > 50.1 µM | > 50.1 µM |
| C=C(C)COCCNC(=O)c1c(O)cccc1F | > 501 µM | > 501 µM |
| N#Cc1ccc(NCc2cccc(COC3CCOCC3)c2)nc1 | > 50.1 µM | > 50.1 µM |
| COc1ccc(CNC(C)c2ccc(Cl)c(Cl)c2)c(OC)c1OC (stereo unspecified) | > 50.1 µM | 45.1 µM |
| OC(CN1CCn2ccnc2C1)c1ccc(Cl)cc1 (stereo unspecified) | > 501 µM | 186 µM |
| O=C(NCCN1CCCC1)c1csc(-c2ccco2)n1 | 224 µM | 201 µM |
| COc1cc(C(=O)NC[C@@H](O)c2ccc(C)cc2)on1 | > 501 µM | 488 µM |
| COC(=O)c1snc(-c2ccccc2)c1N | 97 µM | 103 µM |
| CCN(CCC(N)=O)Cc1cccc2c1OCO2 | 272 µM | 258 µM |
| CCOC(=O)c1cc(C(C)(O)CCC=C(C)C)on1 (stereo unspecified) | 25.8 µM | 36.4 µM |
| N#Cc1cccc(C(=O)OCCCn2cccn2)c1 | > 501 µM | > 501 µM |
| Clc1ccccc1CN1CCc2nc(C3CCNCC3)ncc2C1 | > 50.1 µM | 4.89 µM |
| Cc1ccc(C(=O)NCC(=O)NC(C)(C)C)c(O)c1 | > 501 µM | > 501 µM |
| Ic1nnnn1-c1ccccc1 | 108 µM | 147 µM |
| CCCn1ccc(NC(=O)c2cccc(C#N)c2)n1 | > 501 µM | > 501 µM |
| CCOc1ncc(C(=O)NCC(C)(O)C(C)C)cc1Cl (stereo unspecified) | 141 µM | 59.9 µM |
| CCc1nc(CN(C)Cc2ncc(-c3cccs3)o2)cs1 | 31.4 µM | 31.1 µM |
| Cc1nc(CNC(=O)CC2=CCCCC2)no1 | > 501 µM | > 501 µM |
| Cc1ccc(NCc2cccc(O)c2)cc1S(C)(=O)=O | 333 µM | 89.7 µM |
| CN(C)c1cc(Cn2cnc3sccc3c2=O)ccn1 | > 501 µM | > 501 µM |
| N#Cc1cc(Br)cc(S(=O)(=O)NCCCN)c1 | > 501 µM | > 501 µM |
| Cn1c(-c2ccccc2Cl)nc2cc(C(=O)NC(CO)CO)cnc21 | > 50.1 µM | > 50.1 µM |
| CCCS(=O)(=O)NCC(O)Cc1ccccc1 (stereo unspecified) | 197 µM | 136 µM |
| CN1CCOC(CNCCOc2cccc(C#N)c2)C1 (stereo unspecified) | > 50.1 µM | > 50.1 µM |
| O=C(NCCOCc1ccccc1)c1ccco1 | 245 µM | 249 µM |
| COCCC(C)NC(=O)Nc1ccc(C#N)cc1 (stereo unspecified) | 159 µM | 232 µM |

| Structure (SMILES) | IC50 [1] | IC50 [2] |
| --- | --- | --- |
| NCC1Cc2ccccc21 (stereo unspecified) | 278 µM | 114 µM |
| COc1cccc(CNCCn2cccn2)c1OC | > 501 µM | 196 µM |
| CC(Cn1cccn1)NCc1csc(-c2ccccc2F)n1 (stereo unspecified) | 4.59 µM | 10.4 µM |
| CCC[C@H]1CN(S(=O)(=O)Cc2ccc(F)cc2)C[C@@H]1N | > 501 µM | > 501 µM |
| CCN1C[C@@H]2[C@@H](OC)CCN(C(=O)Cc3ccsc3)[C@@H]2C1 | > 50.1 µM | > 50.1 µM |
| Cn1cc(Cn2nc(-c3ccco3)oc2=O)cn1 | > 501 µM | 187 µM |
| Cc1ccc2nc(CCN)oc2c1 | 23.3 µM | 78.4 µM |
| CCc1ccc(C(=O)N2CCN(Cc3ccc(F)cc3)CC2)s1 | 28.4 µM | 19.9 µM |
| CN(Cc1ccc(N)nc1)c1ncc(Cl)cn1 | 237 µM | 208 µM |
| COc1ccc(CSCC(N)=O)cc1Br | 262 µM | 241 µM |
| O=C(O)c1cc(-c2ccoc2)cc(S(=O)(=O)NC2CC2)c1 | > 50.1 µM | > 50.1 µM |
| CCSc1ncc(CN2CCN(c3nc(C)cnc3C)CC2)cn1 | 28.7 µM | > 50.1 µM |
| Cn1nnnc1NCc1cccc(Cl)c1Cl | > 501 µM | > 501 µM |
| O=C(NCC(O)C1CCCCC1)[C@@H](O)c1ccccc1 (stereo partly specified) | 189 µM | 86.1 µM |
| CCS(=O)(=O)N(C)CCCNc1ccc(Cl)cn1 | 163 µM | 129 µM |
| Cn1cc(CNC(=O)C2CSc3ccccc3O2)cn1 (stereo unspecified) | > 501 µM | 218 µM |
| CS(=O)(=O)Nc1cccc(C(=O)Nc2ccccc2)c1 | 267 µM | 130 µM |
| COCCC(C)Nc1c[nH]nc1-c1ccccn1 (stereo unspecified) | > 501 µM | 201 µM |
| O=C(NCCn1cccc1)c1ccc(Cl)cn1 | 52.9 µM | 57.9 µM |
| O=C(NCCCn1ncc2ccccc21)C1CC1 | 147 µM | 150 µM |
| Cc1ccc(C(N)CN2CCOCC2)cc1 (stereo unspecified) | > 501 µM | 448 µM |
| COc1ccc(N2CCCNCC2)cc1 | 276 µM | 308 µM |
| Cc1nc(-c2cccc(N3CCC(N4CCCC4)CC3)c2)cs1 | 24.2 µM | > 50.1 µM |
| C[C@@H](CO)Nc1ncc(Cl)cc1Br | > 501 µM | 291 µM |
| CCc1ccc(CN(C)C(=O)c2cccn2C)nc1 | 257 µM | 175 µM |
| COc1ncccc1CNS(=O)(=O)c1cccc(Cl)c1 | 311 µM | 230 µM |

| Structure (SMILES) | IC50 [1] | IC50 [2] |
| --- | --- | --- |
| COc1cccc(CS(=O)(=O)Nc2ccc(C)nc2)c1 | > 501 µM | 307 µM |
| CC(Cn1c(=O)[nH]c2ccccc2c1=O)N1CCCC1 (stereo unspecified) | 111 µM | 63.1 µM |
| CC(C)c1ccccc1OCC(O)CN(C)CCO (stereo unspecified) | 257 µM | 123 µM |
| COCCn1nnc(-c2cccc(OC)c2)n1 | 42.2 µM | 43.7 µM |
| CCCc1cc(C(=O)N2CCCN(C)CC2)cs1 | > 501 µM | > 501 µM |
| CC1CN(CCCOc2ccc(C#N)cc2)CCN1 (stereo unspecified) | 390 µM | > 501 µM |
| NCc1noc(-c2ccc(Cl)cc2F)n1 | 242 µM | 277 µM |
| CN(C)c1cc(CN)c2ccccc2n1 | 132 µM | 97.3 µM |
| COCCCNC(=O)C1=Cc2ccccc2OC1 | 115 µM | 119 µM |
| CN1CCC(NC(=O)c2coc(Br)c2)CC1=O (stereo unspecified) | > 501 µM | > 501 µM |
| CCc1ccc(CN2CC(N3CCOCC3)C2)o1 | 188 µM | 129 µM |
| CC(CNC(=O)c1ccc(Cl)cn1)Cn1ccnc1 (stereo unspecified) | 176 µM | 159 µM |
| CNCCCNC(=O)CCc1ccc(F)cc1 | > 501 µM | > 501 µM |
| CCCC(C)N(C)Cc1nnc(-c2ccc(Br)s2)o1 (stereo unspecified) | 29.4 µM | 1.85 µM |
| Cc1cccc(NC(=O)C(C)Oc2ccc3c(c2)OCO3)n1 (stereo unspecified) | 5.27 µM | 16 µM |
| CC(=O)Nc1nc(C(=O)NCc2ccc(C)s2)cs1 | 268 µM | 224 µM |
| O=C(NCCCOC(F)F)NCc1ccc(Br)o1 | 125 µM | 135 µM |
| O=C(NCc1cccs1)c1cnccn1 | 80.5 µM | 33.9 µM |
| NCc1nc(-c2ccc(OC(F)(F)F)cc2)no1 | 190 µM | 70.7 µM |
| CNS(=O)(=O)c1ccc(C(=O)NCc2ccccc2)o1 | > 501 µM | 151 µM |
| O=C(c1cnsn1)N1CCN(Cc2ccc(Cl)s2)CC1 | 71 µM | 45.6 µM |
| Cc1ccc(-c2noc(CNS(C)(=O)=O)n2)cc1 | > 501 µM | 248 µM |
| OC(CN1CCCSCC1)c1ccc(F)cc1 (stereo unspecified) | > 501 µM | > 501 µM |
| NCc1nc(C(F)F)no1 | > 501 µM | 289 µM |
| COc1ccc(-c2noc(C(C)n3ccnc3)n2)cn1 (stereo unspecified) | 442 µM | 300 µM |
| O=C(NC1CCCCC1)c1ccc(CO)cc1 | 143 µM | 161 µM |
